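Tested at 5 concentrations; 48 h exposure; 96-well plates; endpoints linearly interpolated, else capped at highest concentration. GI50 is the concentration that inhibits growth by half.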 Calls of active or inactive are those of the source. No stated cut-off is given here; in the data, active = GI50 up to about 1.1 µM and inactive = higher.
Columns and labels:
Test in all cases: inhibition of tumour cell growth, NCI panel, 48 h
LOX IMVI = test system: LOX IMVI
SK-MEL-5 = test system: SK-MEL-5
IGROV-1 = test system: IGROV-1
OVCAR-5 = test system: OVCAR-5
MDA-MB-435 = test system: MDA-MB-435
OVCAR-4 = test system: OVCAR-4
COLO 205 = test system: COLO 205
SNB-75 = test system: SNB-75
Malme-3M = test system: Malme-3M
SW-620 = test system: SW-620
DU-145 = test system: DU-145
A549 = test system: A549
NCI-H23 = test system: NCI-H23
UACC-257 = test system: UACC-257
MDA-N = test system: MDA-N
NCI-H226 = test system: NCI-H226
HCT-15 = test system: HCT-15
OVCAR-8 = test system: OVCAR-8
HCC 2998 = test system: HCC 2998

Structure (SMILES): Clc1ccc(C2=NNC(c3cccc(Cl)c3)C2)cc1 (stereo not drawn)
- GI50 (LOX IMVI): 16 µM (inactive)
- GI50 (SK-MEL-5): 14.8 µM (inactive)
- GI50 (IGROV-1): 0.344 µM (active)
- GI50 (OVCAR-5): 44.8 µM (inactive)
- GI50 (MDA-MB-435): 17.9 µM (inactive)
- GI50 (OVCAR-4): 32.8 µM (inactive)
- GI50 (COLO 205): 15.9 µM (inactive)
- GI50 (SNB-75): 26.8 µM (inactive)
- GI50 (Malme-3M): 28.1 µM (inactive)
- GI50 (SW-620): 23.2 µM (inactive)
- GI50 (DU-145): 36.9 µM (inactive)
- GI50 (A549): 23.2 µM (inactive)
- GI50 (NCI-H23): 25.8 µM (inactive)
- GI50 (UACC-257): 32.3 µM (inactive)
- GI50 (MDA-N): 21.1 µM (inactive)
- GI50 (NCI-H226): 35.6 µM (inactive)

Structure (SMILES): [O-][n+]1cc(SCc2ccccc2)ncc1SCc1ccccc1
- GI50 (LOX IMVI): > 10 µM (inactive)
- GI50 (SK-MEL-5): > 10 µM (inactive)
- GI50 (IGROV-1): > 10 µM (inactive)
- GI50 (HCT-15): > 10 µM
- GI50 (OVCAR-5): > 10 µM (inactive)
- GI50 (MDA-MB-435): > 10 µM (inactive)
- GI50 (OVCAR-4): > 10 µM (inactive)
- GI50 (COLO 205): > 10 µM (inactive)
- GI50 (SNB-75): > 10 µM (inactive)
- GI50 (Malme-3M): > 10 µM (inactive)
- GI50 (OVCAR-8): > 10 µM (inactive)
- GI50 (DU-145): > 10 µM (inactive)
- GI50 (A549): > 10 µM (inactive)
- GI50 (NCI-H23): > 10 µM (inactive)
- GI50 (UACC-257): > 10 µM (inactive)
- GI50 (NCI-H226): > 10 µM (inactive)
- GI50 (HCC 2998): > 10 µM (inactive)

Structure (SMILES): CC(C)(C)OC(=O)N(CCCCNC(=O)C(F)(F)F)CCCNC(=O)C(F)(F)F
- GI50 (SK-MEL-5): > 100 µM (inactive)
- GI50 (IGROV-1): > 100 µM (inactive)
- GI50 (HCT-15): > 100 µM
- GI50 (OVCAR-5): > 100 µM (inactive)
- GI50 (MDA-MB-435): > 100 µM (inactive)
- GI50 (OVCAR-4): > 100 µM (inactive)
- GI50 (COLO 205): > 100 µM (inactive)
- GI50 (SNB-75): > 100 µM (inactive)
- GI50 (OVCAR-8): > 100 µM (inactive)
- GI50 (SW-620): > 100 µM (inactive)
- GI50 (DU-145): > 100 µM (inactive)
- GI50 (A549): > 100 µM (inactive)
- GI50 (NCI-H23): > 100 µM (inactive)
- GI50 (UACC-257): > 100 µM (inactive)
- GI50 (NCI-H226): > 100 µM (inactive)
- GI50 (HCC 2998): > 100 µM (inactive)

Structure (SMILES): CC(C)=CCC/C(=C/CC/C(C)=C/CCc1ccoc1)C(=O)O
- GI50 (LOX IMVI): > 100 µM (inactive)
- GI50 (SK-MEL-5): > 100 µM (inactive)
- GI50 (HCT-15): > 100 µM
- GI50 (OVCAR-5): 26.5 µM (inactive)
- GI50 (OVCAR-4): > 100 µM (inactive)
- GI50 (COLO 205): > 100 µM (inactive)
- GI50 (SNB-75): > 100 µM (inactive)
- GI50 (Malme-3M): > 100 µM (inactive)
- GI50 (OVCAR-8): > 100 µM (inactive)
- GI50 (SW-620): > 100 µM (inactive)
- GI50 (A549): > 100 µM (inactive)
- GI50 (NCI-H23): > 100 µM (inactive)
- GI50 (UACC-257): > 100 µM (inactive)
- GI50 (NCI-H226): 73.5 µM (inactive)
- GI50 (HCC 2998): > 100 µM (inactive)

Structure (SMILES): COc1ccc2c(c1)CC[C@@H]1[C@@H]2CC[C@]2(C)C(=O)/C(=C/c3ccc(N(C)C)cc3)C[C@@H]12
- GI50 (SK-MEL-5): 73.1 µM (inactive)
- GI50 (HCT-15): > 100 µM
- GI50 (OVCAR-5): > 100 µM (inactive)
- GI50 (MDA-MB-435): > 100 µM (inactive)
- GI50 (OVCAR-4): 37.2 µM (inactive)
- GI50 (COLO 205): > 100 µM (inactive)
- GI50 (SNB-75): 24.2 µM (inactive)
- GI50 (Malme-3M): 83.2 µM (inactive)
- GI50 (SW-620): > 100 µM (inactive)
- GI50 (DU-145): > 100 µM (inactive)
- GI50 (A549): 41.9 µM (inactive)
- GI50 (NCI-H23): 33 µM (inactive)
- GI50 (HCC 2998): > 100 µM (inactive)

Structure (SMILES): COC1CCN(N(C)C)O1 (stereo not drawn)
- GI50 (LOX IMVI): > 100 µM (inactive)
- GI50 (SK-MEL-5): > 100 µM (inactive)
- GI50 (IGROV-1): > 100 µM (inactive)
- GI50 (HCT-15): > 100 µM
- GI50 (OVCAR-5): > 100 µM (inactive)
- GI50 (MDA-MB-435): > 100 µM (inactive)
- GI50 (OVCAR-4): > 100 µM (inactive)
- GI50 (COLO 205): > 100 µM (inactive)
- GI50 (SNB-75): > 100 µM (inactive)
- GI50 (Malme-3M): > 100 µM (inactive)
- GI50 (OVCAR-8): > 100 µM (inactive)
- GI50 (SW-620): > 100 µM (inactive)
- GI50 (DU-145): > 100 µM (inactive)
- GI50 (A549): > 100 µM (inactive)
- GI50 (NCI-H23): > 100 µM (inactive)
- GI50 (UACC-257): > 100 µM (inactive)
- GI50 (NCI-H226): > 100 µM (inactive)
- GI50 (HCC 2998): > 100 µM (inactive)

Structure (SMILES): O=C(O)c1ccccc1/C=N/N=C1NCCCCN1
- GI50 (LOX IMVI): > 100 µM (inactive)
- GI50 (SK-MEL-5): > 100 µM (inactive)
- GI50 (IGROV-1): > 100 µM (inactive)
- GI50 (HCT-15): > 100 µM
- GI50 (OVCAR-5): > 100 µM (inactive)
- GI50 (MDA-MB-435): > 100 µM (inactive)
- GI50 (OVCAR-4): > 100 µM (inactive)
- GI50 (COLO 205): > 100 µM (inactive)
- GI50 (SNB-75): > 100 µM (inactive)
- GI50 (Malme-3M): > 100 µM (inactive)
- GI50 (OVCAR-8): > 100 µM (inactive)
- GI50 (SW-620): > 100 µM (inactive)
- GI50 (A549): > 100 µM (inactive)
- GI50 (NCI-H23): > 100 µM (inactive)
- GI50 (UACC-257): > 100 µM (inactive)
- GI50 (MDA-N): > 100 µM (inactive)
- GI50 (NCI-H226): > 100 µM (inactive)
- GI50 (HCC 2998): > 100 µM (inactive)

Structure (SMILES): O=C(c1ccccc1)c1ccc2[nH]c(-c3c(Cl)c(Cl)c(Cl)c(Cl)c3C(=O)N/N=C/c3cccc(Oc4ccccc4)c3)nc2c1
- GI50 (LOX IMVI): > 100 µM (inactive)
- GI50 (SK-MEL-5): 90.6 µM (inactive)
- GI50 (IGROV-1): > 100 µM (inactive)
- GI50 (HCT-15): 45.4 µM
- GI50 (OVCAR-5): > 100 µM (inactive)
- GI50 (MDA-MB-435): 38.1 µM (inactive)
- GI50 (OVCAR-4): 99.3 µM (inactive)
- GI50 (COLO 205): > 100 µM (inactive)
- GI50 (SNB-75): 60.8 µM (inactive)
- GI50 (Malme-3M): > 100 µM (inactive)
- GI50 (OVCAR-8): 75.2 µM (inactive)
- GI50 (SW-620): 56.1 µM (inactive)
- GI50 (DU-145): > 100 µM (inactive)
- GI50 (A549): > 100 µM (inactive)
- GI50 (NCI-H23): 74.1 µM (inactive)
- GI50 (UACC-257): > 100 µM (inactive)
- GI50 (MDA-N): 46.5 µM (inactive)
- GI50 (NCI-H226): 84.1 µM (inactive)

Structure (SMILES): CCN1CCC(C)OP1(=O)Cc1ccccc1 (stereo not drawn)
- GI50 (LOX IMVI): > 100 µM (inactive)
- GI50 (SK-MEL-5): > 100 µM (inactive)
- GI50 (IGROV-1): > 100 µM (inactive)
- GI50 (HCT-15): > 100 µM
- GI50 (OVCAR-5): > 100 µM (inactive)
- GI50 (MDA-MB-435): > 100 µM (inactive)
- GI50 (OVCAR-4): > 100 µM (inactive)
- GI50 (COLO 205): > 100 µM (inactive)
- GI50 (Malme-3M): > 100 µM (inactive)
- GI50 (OVCAR-8): > 100 µM (inactive)
- GI50 (SW-620): > 100 µM (inactive)
- GI50 (DU-145): > 100 µM (inactive)
- GI50 (A549): > 100 µM (inactive)
- GI50 (NCI-H23): > 100 µM (inactive)
- GI50 (UACC-257): > 100 µM (inactive)
- GI50 (NCI-H226): > 100 µM (inactive)
- GI50 (HCC 2998): > 100 µM (inactive)

From ChEMBL document CHEMBL1201862, “PubChem BioAssay data set” (2004)
